Source: patent US6124453A, “Macrolides” (Novartis AG, priority 1995, dated 2000)

Key:
[1] = tested on: spleen cells from Balb/c mice co-incubated with spleen cells from CBA mice; test: Two-way MLR (murine mixed lymphocyte reaction); assay type: cell-based; settings: Mus musculus, 96 h, 4 days co-incubation, labelled precursor incorporation into DNA, read-out: IC50, proliferative response in two-way MLR
Method: 1. Proliferative Response Of Lymphocvtes to Allogenic Stimulation
Two-way MLR (Murine Mixed Lymphocyte Reaction)
Spleen cells (2×10^5) from Balb/c mice (female, 8-10 weeks) are co-incubated for 4 days with 2×10^5 spleen cells from CBA mice (female, 8-10 weeks). The allogenic cells induce a proliferative response in the responder spleen cell population which is measured by labelled precursor incorporation into the DNA.

[2] = tested on: LPS-stimulated Murine B-cells; test: LPS-stimulated murine B-cell proliferation; assay type: cell-based, CBA mice; settings: Mus musculus, 48 hours with 50 μg/ml LPS, labelled precursor incorporation into DNA, read-out: IC50, inhibition of B-cell proliferation
Method: LPS-stimulated Murine B-cells
Spleen cells (2×10^5) from CBA mice are incubated for 48 hours with 50 μg/ml LPS plus test compound. Proliferation is measured by labelled precursor incorporation into DNA.

[3] = Cytotoxic and cytostatic activity in vitro using the THP1 cell line (MTT); assay type: cell-based; settings: human, thp1 cells; after 24 h incubation, IFNγ 100 U/ml and LPS 5 μg/ml; read-out: IC50, cytotoxicity THP1 (MTT)
Method: 3. Cytotoxic and Cytostatic Activity in Vitro Using the THP1 Cell Line
Cytotoxicity is determined using the human monocytic cell line THP1 (5×10^4 cells/well) which are incubated in the presence of IFNγ (100 U/ml)and LPS (5 μg/ml) plus test compound (up to 10 μM) for 24 to 72 h at 37° C. Living cells are quantified using the colourimetric read-out MTT which measures mitochondrial dehydrogenase enzymatic activity in living cells (Mossman 1983). Macrolides of the invention, e.g. compounds of formula IX and their pharmaceutically acceptable salts, e.g. Sanglifehrins A, B, C and D, have IC50 s of about 1000-5000 nM after 24 h incubation in this assay.

[4] = tested on: Tumour Necrosis Factor (TNF) α release by peripheral blood mononuclear cells; test: TNF release by human peripheral blood mononuclear cells; assay type: cell-based; settings: PBMC, IFNγ 100 U/ml and LPS 5 μg/ml, 3 h incubation, ELISA
Method: 4. TNF Release by Human Peripheral Blood Mononuclear Cells
Mononuclear cells are prepared from the peripheral blood of healthy volunteers using Ficoll-Hypaque density separation according to the method of Hansell et al. (1991). Cells (10^5 cells/well in 200 μl RPMI 10% FCS by volume) are incubated with serial dilutions of the test compounds for 30 min at 37° C. prior to the addition of stimulus. Interferon γ (100 U/ml) and LPS (5 μg/ml) are used as stimuli to induce Tumour Necrosis Factor (TNF) α release by peripheral blood mononuclear cells. After 3 h incubation, the cells are centrifuged (1200 rpm for 10 min) and the supernatants are collected. The amount of TNF present in the cell supernatants is determined using a commercially available enzyme-linked immunosorbent assay kit.

[5] = target: FK binding protein (Homo sapiens, UniProt P62942); test: FK binding protein binding (standard test); settings: standard tests
[6] = tested on: DTH footpad swelling; test: DTH induced by SRBC-TH cells; assay type: in vivo, C57 BL/6 mice; settings: doses of the order of 5 mg/kg s.c., footpad thickness after 24 hours
Method: 7. DTH Induced by SRBC-TH Cells
50 μl of the SRBC cell suspension (diluted 1:1 v/v with PBS) is injected s.c. into the left hind footpad (to measure non specific increase in footpad swelling due to the injection procedure). Right and left hind footpad thickness is measured 24 hours later.
The percent increase in thickness of the right footpad over the left footpad (z) is calculated. Thickness of right footpad=x. thickness of left footpad=y; % specific increase=z

[7] = tested on: heart allograft; test: Mouse heart allotransplantation (BALB/c to C3H); assay type: in vivo; settings: doses of the order of 30 mg/kg/day, s.c. Alzet osmotic minipumps
Method: (§1) 8. Rat/Mouse Heart Allotransplantation
(§2) The in vivo efficacy of macrolides of the invention is assessed in rat and mouse heart allotransplantation using Alzet osmotic minipumps for s.c. administration.

[8] = tested on: heart allograft; test: Rat heart allotransplantation (DA to Lewis); assay type: in vivo; settings: in combination with suboptimal doses of cyclosporin A
Method: as §1, §2

[9] = target: human recombinant cyclophilin A (Homo sapiens, UniProt P62937); test: Cyclophilin binding assay (competitive ELISA / competitive binding test); settings: competition with coated BSA-cyclosporin A
Text: 5. Cyclophilin Binding Assay
A suitable cyclophilin binding assay is the competitive ELISA test described by Quesniaux in Eur. J. Immunol. 1987 17 1359-1365.

[10] = tested on: calcineurin; test: Calcineurin activity (standard test); assay type: biochemical; settings: standard tests
[11] = tested on: Localised Graft-versus-Host (GvH) reaction; test: Localised graft-versus-host (GvH) reaction in the rat; assay type: in vivo; settings: dose of about 1 mg/kg s.c., 4 consecutive days, lymph node weight on day 7
Method: 6. Localised Graft-versus-Host (GvH) Reaction in the Rat
Spleen cells (1×10^7) from 6 week old female Wistar/Furth (WF) rats are injected subcutaneously on day 0 into the left hind-paw of female (F344×WF)F1 rats weighing about 100 g. Animals are treated for 4 consecutive days and the popliteal lymph nodes are removed and weighed on day 7. The difference in weight between the two lymph nodes is taken as the parameter for evaluating the reaction.

FK binding protein, sequence (P62942 whole entry): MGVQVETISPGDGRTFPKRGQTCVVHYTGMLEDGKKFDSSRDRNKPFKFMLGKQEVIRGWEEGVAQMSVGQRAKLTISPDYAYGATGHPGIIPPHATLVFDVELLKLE
human recombinant cyclophilin A, sequence (P62937 whole entry): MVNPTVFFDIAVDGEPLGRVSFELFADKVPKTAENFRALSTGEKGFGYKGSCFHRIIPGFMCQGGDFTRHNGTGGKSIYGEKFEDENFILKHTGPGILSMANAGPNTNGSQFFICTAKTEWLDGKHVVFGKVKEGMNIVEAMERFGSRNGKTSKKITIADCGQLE

CC[C@H]1C[C@H](C)[C@@]2(NC1=O)O[C@@H](C[C@H](O)[C@@H](C)CC/C=C/C=C(\C)[C@@H]1C/C=C/C=C/[C@H](O)[C@H](C)[C@@H](O)[C@@H](CCC(C)=O)C(=O)N[C@@H](C(C)C)C(=O)N[C@@H](Cc3cccc(O)c3)C(=O)N3CCC[C@H](N3)C(=O)O1)[C@H](C)[C@H](O)[C@@H]2C [Sanglifehrin A]
IC50 [1]: 0.03 to 0.2 µM
IC50 [2]: 40 to 100 µM
CC50 at 24 h [3]: 1 to 5 µM
IC50 [4]: 0.2 to 1 µM
FK binding protein binding activity [5]: do not have FK binding protein binding activity
reduction of swelling of the DTH mouse [6]: up to 50%
graft survival (in words), mouse heart allotransplantation [7]: prolong graft survival
graft survival (in words), rat heart allotransplantation [8]: prolonged graft survival

CCC1CC(C)C2(NC1=O)OC(CC(O)C(C)CCC=CC=C(C)C1CC=CC=CC(O)C(C)C3OC(C)(OC)CCC3C(=O)NC(C(C)C)C(=O)NC(Cc3cccc(O)c3)C(=O)N3CCCC(N3)C(=O)O1)C(C)C(O)C2C (stereo not drawn) [Sanglifehrin C]
IC50 [1]: 0.03 to 0.2 µM
IC50 [2]: 40 to 100 µM
CC50 at 24 h [3]: 1 to 5 µM
IC50 [4]: 0.2 to 1 µM
IC50 [9]: 0.01 to 0.1 µM
FK binding protein binding activity [5]: do not have FK binding protein binding activity
inhibition of calcineurin activity [10]: do not inhibit calcineurin activity
inhibition of the GvH reaction [11]: up to 30%
reduction of swelling of the DTH mouse [6]: up to 50%
graft survival (in words), mouse heart allotransplantation [7]: prolong graft survival
graft survival (in words), rat heart allotransplantation [8]: prolonged graft survival

CCC1CC(C)C2(NC1=O)OC(CC(O)C(C)CCC=CC=C(C)C1CC=CC=CC(O)C(C)C(O)C(CCC(C)=O)C(=O)NC(C(C)C)C(=O)NC(Cc3cccc(O)c3)C(=O)N3CCCC(N3)C(=O)O1)C(C)C=C2C (stereo not drawn) [Sanglifehrin B]
IC50 [1]: 0.03 to 0.2 µM
IC50 [2]: 40 to 100 µM
CC50 at 24 h [3]: 1 to 5 µM
IC50 [4]: 0.2 to 1 µM
IC50 [9]: 0.01 to 0.1 µM
FK binding protein binding activity [5]: do not have FK binding protein binding activity
inhibition of calcineurin activity [10]: do not inhibit calcineurin activity
inhibition of the GvH reaction [11]: up to 30%
reduction of swelling of the DTH mouse [6]: up to 50%
graft survival (in words), mouse heart allotransplantation [7]: prolong graft survival
graft survival (in words), rat heart allotransplantation [8]: prolonged graft survival
